Values after ≈ are worked out from the molar mass of the structure shown. Active and inactive are the calls of the source. The rule behind the calls is not given here.
Legend:
[1] = target: Keap1/Nrf2 (Homo sapiens, UniProt Q14145); assay: Inhibition of recombinant N-terminal His6-tagged human Keap1-Nrf2 (322 to 609 residues) (unknown origin) protein-protein interaction expressed in Escherichia coli (DE3) incubated for 60 mins by fluorescence anisotropy assay
[2] = system: Peritoneal macrophage; assay: Cytotoxicity against mouse peritoneal macrophages assessed as reduction in cell viability measured after 24 hrs by Cell Titer-Blue assay; assay type: functional
[3] = system: Peritoneal macrophage; assay: Antiinflammatory activity against LPS-induced mouse peritoneal macrophage assessed as suppression of ROS level at 10 uM pretreated with LPS followed by compound addition and measured after 6 hrs by DCFH-DA staining based fluorescence analysis; assay type: functional, cell-based
[4] = system: Peritoneal macrophage; assay: Antiinflammatory activity against LPS-induced mouse peritoneal macrophage assessed as suppression of NO level at 10 uM pretreated with LPS followed by compound addition and measured after 24 hrs by Griess reagent based assay; assay type: functional, cell-based
[5] = system: Peritoneal macrophage; assay: Antiinflammatory activity against LPS-induced mouse peritoneal macrophage assessed as inhibition of TNF alpha level at 10 uM after 4 hrs by ELISA method; assay type: functional, cell-based
[6] = Aqueous solubility of the compound in PBS at pH 2 after 24 hrs by HPLC-UV analysis; assay type: physicochemical
[7] = Aqueous solubility of the compound in PBS at pH 7 after 24 hrs by HPLC-UV analysis; assay type: physicochemical
[8] = Aqueous solubility of the compound in PBS at pH 7.4 after 24 hrs by HPLC-UV analysis; assay type: physicochemical
[9] = system: Mus musculus; assay: Antiinflammatory activity against ip dosed LPS-induced ALI C57BL/6J mouse model assessed as reduction in TNF-alpha level in BALF administered 0.5 hr prior to LPS stimulation by ELISA method; assay type: functional, organism-based; settings: dose 5-20 mg/kg, DDE = dose-dependent effect
[10] = system: Mus musculus; assay: Antiinflammatory activity against ip dosed LPS-induced ALI C57BL/6J mouse model assessed as reduction in […] level in BALF administered 0.5 hr prior to LPS stimulation by ELISA method; assay type: functional, organism-based; settings: dose 5-20 mg/kg, DDE = dose-dependent effect
[11] = system: Mus musculus; assay: Antiinflammatory activity against ip dosed LPS-induced ALI C57BL/6J mouse model assessed as reduction in IL-6 level in BALF administered 0.5 hr prior to LPS stimulation by ELISA method; assay type: functional, organism-based; settings: dose 5-20 mg/kg, DDE = dose-dependent effect
[12] = system: Mus musculus; assay: Antiinflammatory activity against ip dosed LPS-induced ALI C57BL/6J mouse model assessed as reduction in TNF-alpha mRNA expression in BALF administered 0.5 hr prior to LPS stimulation by RT-qPCR method; assay type: functional, organism-based; settings: dose 5-20 mg/kg, DDE = dose-dependent effect
[13] = system: Mus musculus; assay: Antiinflammatory activity against ip dosed LPS-induced ALI C57BL/6J mouse model assessed as reduction in IL-1beta mRNA expression in BALF administered 0.5 hr prior to LPS stimulation by RT-qPCR method; assay type: functional, organism-based; settings: dose 5-20 mg/kg, DDE = dose-dependent effect
[14] = system: Mus musculus; assay: Antiinflammatory activity against ip dosed LPS-induced ALI C57BL/6J mouse model assessed as reduction in IL-6 mRNA expression in BALF administered 0.5 hr prior to LPS stimulation by RT-qPCR method; assay type: functional, organism-based; settings: dose 5-20 mg/kg, DDE = dose-dependent effect
[15] = system: Mus musculus; assay: In vivo inhibition of Keap1-Nrf2 interaction in LPS-induced acute lung injury C57BL/6J mouse model assessed as increase in Nrf2 nuclear translocation in lungs by measuring decrease in cytosolic Nrf2 level treated intraperitoneally at 0.5 hrs before LPS stimulation by Western blot analysis; assay type: functional, organism-based; settings: dose 5-20 mg/kg, route ip, DDE = dose-dependent effect
[16] = system: Mus musculus; assay: In vivo inhibition of Keap1-Nrf2 interaction in LPS-induced acute lung injury C57BL/6J mouse model assessed as increase in Nrf2 nuclear translocation in lungs by measuring increase in nuclear Nrf2 level treated intraperitoneally at 0.5 hrs before LPS stimulation by Western blot analysis; assay type: functional, organism-based; settings: dose 5-20 mg/kg, route ip, DDE = dose-dependent effect

Sequence of Keap1/Nrf2 (Q16236 whole entry, the tested form may be a part): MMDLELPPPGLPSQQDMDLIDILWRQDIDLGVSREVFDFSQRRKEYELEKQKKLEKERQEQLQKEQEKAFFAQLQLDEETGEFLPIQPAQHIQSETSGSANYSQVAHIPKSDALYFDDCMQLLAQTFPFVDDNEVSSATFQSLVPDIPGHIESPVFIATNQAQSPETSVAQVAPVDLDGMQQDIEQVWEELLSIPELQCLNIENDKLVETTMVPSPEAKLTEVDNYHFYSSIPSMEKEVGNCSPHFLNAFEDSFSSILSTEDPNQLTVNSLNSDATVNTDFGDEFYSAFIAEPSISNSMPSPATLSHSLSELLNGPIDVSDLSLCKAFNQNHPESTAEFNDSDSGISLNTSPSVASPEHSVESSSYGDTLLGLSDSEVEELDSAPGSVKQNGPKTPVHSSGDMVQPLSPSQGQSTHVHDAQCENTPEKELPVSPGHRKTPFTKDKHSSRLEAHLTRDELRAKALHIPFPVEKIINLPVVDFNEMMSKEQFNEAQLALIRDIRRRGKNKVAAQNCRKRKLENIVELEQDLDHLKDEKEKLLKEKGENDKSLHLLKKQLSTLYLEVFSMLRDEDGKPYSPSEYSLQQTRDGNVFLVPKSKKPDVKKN
Sequence of Keap1/Nrf2 (Q14145 whole entry, the tested form may be a part): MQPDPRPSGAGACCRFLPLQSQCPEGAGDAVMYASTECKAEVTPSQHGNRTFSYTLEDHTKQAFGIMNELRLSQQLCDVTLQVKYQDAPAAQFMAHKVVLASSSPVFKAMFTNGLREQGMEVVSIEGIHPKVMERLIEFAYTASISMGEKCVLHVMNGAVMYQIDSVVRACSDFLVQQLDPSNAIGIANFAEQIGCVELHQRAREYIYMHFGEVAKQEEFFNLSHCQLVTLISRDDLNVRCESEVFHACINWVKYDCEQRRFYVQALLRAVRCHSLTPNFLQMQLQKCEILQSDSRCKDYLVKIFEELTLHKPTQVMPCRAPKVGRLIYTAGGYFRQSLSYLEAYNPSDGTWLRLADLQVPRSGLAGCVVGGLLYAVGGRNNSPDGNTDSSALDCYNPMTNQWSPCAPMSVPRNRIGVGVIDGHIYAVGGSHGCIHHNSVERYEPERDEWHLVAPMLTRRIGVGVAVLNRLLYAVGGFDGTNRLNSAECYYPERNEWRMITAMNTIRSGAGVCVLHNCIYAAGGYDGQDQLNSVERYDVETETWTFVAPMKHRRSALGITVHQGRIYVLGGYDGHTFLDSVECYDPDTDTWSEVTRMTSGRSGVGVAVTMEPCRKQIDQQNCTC

SMILES | Kd [1] | solubility at 24 h [6] | solubility at 24 h [7] | solubility at 24 h [8] | CC50 [2] | also measured
COc1ccc(S(=O)(=O)N(CC(N)=O)c2ccc(N(CC(N)=O)S(=O)(=O)c3ccc(N)cc3)c3ccccc23)cc1 |  | 47.5 µg/mL (≈ 79.5 µM) | 55.4 µg/mL (≈ 92.7 µM) | 33.6 µg/mL (≈ 56.2 µM) |  | 
COc1ccc(S(=O)(=O)N(CC(N)=O)c2ccc(N(CC(N)=O)S(=O)(=O)c3ccc(NC(=O)CN4CCOCC4)cc3)c3ccccc23)cc1 | 1350 nM |  |  |  | > 100000 nM | 
COc1ccc(S(=O)(=O)N(CC(N)=O)c2ccc(N(CC(N)=O)S(=O)(=O)c3ccc(NC(=O)CN4CCN(C(C)C)CC4)cc3)c3ccccc23)cc1 | 1450 nM |  |  |  | > 100000 nM | 
CCCCC(=O)Nc1ccc(S(=O)(=O)N(CC(N)=O)c2ccc(N(CC(N)=O)S(=O)(=O)c3ccc(OC)cc3)c3ccccc23)cc1 | > 10000 nM |  |  |  | > 100000 nM | 
COc1ccc(S(=O)(=O)N(CC(N)=O)c2ccc(N(CC(N)=O)S(=O)(=O)c3ccc(NC(C)=O)cc3)c3ccccc23)cc1 | 1760 nM |  |  |  | > 50000 nM | Activity [3]: Active; Activity [4]: Active; Activity [5]: Active
CCC(=O)Nc1ccc(S(=O)(=O)N(CC(N)=O)c2ccc(N(CC(N)=O)S(=O)(=O)c3ccc(OC)cc3)c3ccccc23)cc1 | 2810 nM |  |  |  | > 50000 nM | 
CCCC(=O)Nc1ccc(S(=O)(=O)N(CC(N)=O)c2ccc(N(CC(N)=O)S(=O)(=O)c3ccc(OC)cc3)c3ccccc23)cc1 | > 10000 nM |  |  |  | > 100000 nM | 
COc1ccc(S(=O)(=O)N(CC(N)=O)c2ccc(N(CC(N)=O)S(=O)(=O)c3ccc(NC(=O)CN4CCC(C)CC4)cc3)c3ccccc23)cc1 | 6110 nM |  |  |  | > 50000 nM | 
COc1ccc(S(=O)(=O)N(CC(N)=O)c2ccc(N(CC(N)=O)S(=O)(=O)c3ccc(NC(=O)CN4CCCCC4)cc3)c3ccccc23)cc1 | 6640 nM |  |  |  | > 100000 nM | 
Br.Br.COc1ccc(S(=O)(=O)N(CC(N)=O)c2ccc(N(CC(N)=O)S(=O)(=O)c3ccc(N)cc3)c3ccccc23)cc1 |  | 532 µg/mL | 58.6 µg/mL | 40.7 µg/mL |  | 
CCN1CCN(CCC(=O)Nc2ccc(S(=O)(=O)N(CC(N)=O)c3ccc(N(CC(N)=O)S(=O)(=O)c4ccc(OC)cc4)c4ccccc34)cc2)CC1 |  |  |  |  |  | Activity [3]: Active; Activity [9]: Dde; Activity [10]: Dde; Activity [11]: Dde; Activity [12]: Dde; Activity [13]: Dde; Activity [14]: Dde; Activity [15]: Dde; Activity [4]: Active; Activity [5]: Active; Activity [16]: Dde
COc1ccc(S(=O)(=O)N(CC(N)=O)c2ccc(N(CC(N)=O)S(=O)(=O)c3ccc(NC(=O)CN4CCSCC4)cc3)c3ccccc23)cc1 | 8940 nM |  |  |  | > 100000 nM | 

Now from value to molecule, other results behind:

Kd [1] | solubility at 24 h [6] | solubility at 24 h [7] | solubility at 24 h [8] | SMILES | CC50 [2] | also measured
1030 nM |  |  |  | COc1ccc(S(=O)(=O)N(CC(N)=O)c2ccc(N(CC(N)=O)S(=O)(=O)c3ccc(NC(=O)CCN4CCOCC4)cc3)c3ccccc23)cc1 | > 100000 nM | Activity [3]: Active; Activity [4]: Active; Activity [5]: Active
1480 nM |  |  |  | COc1ccc(S(=O)(=O)N(CC(N)=O)c2ccc(N(CC(N)=O)S(=O)(=O)c3ccc(NC(=O)CCCN4CCN(C(C)C)CC4)cc3)c3ccccc23)cc1 | > 100000 nM | 
2920 nM |  |  |  | COc1ccc(S(=O)(=O)N(CC(N)=O)c2ccc(N(CC(N)=O)S(=O)(=O)c3ccc(NC(=O)CCCN4CCSCC4)cc3)c3ccccc23)cc1 | > 100000 nM | 
1420 nM |  |  |  | COc1ccc(S(=O)(=O)N(CC(N)=O)c2ccc(N(CC(N)=O)S(=O)(=O)c3ccc(NC(=O)CCN4CCCCC4)cc3)c3ccccc23)cc1 | > 100000 nM | 
 | 1570 µg/mL | 151 µg/mL | 47.7 µg/mL | CCN1CCN(CCC(=O)Nc2ccc(S(=O)(=O)N(CC(N)=O)c3ccc(N(CC(N)=O)S(=O)(=O)c4ccc(OC)cc4)c4ccccc34)cc2)CC1.Cl |  | 
2910 nM |  |  |  | COc1ccc(S(=O)(=O)N(CC(N)=O)c2ccc(N(CC(N)=O)S(=O)(=O)c3ccc(NC(=O)CCN4CCSCC4)cc3)c3ccccc23)cc1 | > 50000 nM | 
 | 1260 µg/mL | 135 µg/mL | 105 µg/mL | CCN1CCN(CCC(=O)Nc2ccc(S(=O)(=O)N(CC(N)=O)c3ccc(N(CC(N)=O)S(=O)(=O)c4ccc(OC)cc4)c4ccccc34)cc2)CC1.O=C(O)C(F)(F)F |  | 
 | 1050 µg/mL | 122 µg/mL | 80.5 µg/mL | CCN1CCN(CCC(=O)Nc2ccc(S(=O)(=O)N(CC(N)=O)c3ccc(N(CC(N)=O)S(=O)(=O)c4ccc(OC)cc4)c4ccccc34)cc2)CC1.O=C(O)/C=C\C(=O)O |  | 
1080 nM |  |  |  | COc1ccc(S(=O)(=O)N(CC(N)=O)c2ccc(N(CC(N)=O)S(=O)(=O)c3ccc(NC(=O)CCCN4CCOCC4)cc3)c3ccccc23)cc1 | > 100000 nM | 
 | 1460 µg/mL | 170 µg/mL | 130 µg/mL | Br.CCN1CCN(CCC(=O)Nc2ccc(S(=O)(=O)N(CC(N)=O)c3ccc(N(CC(N)=O)S(=O)(=O)c4ccc(OC)cc4)c4ccccc34)cc2)CC1 |  | 
 | 926 µg/mL | 120 µg/mL | 77.9 µg/mL | CC(=O)O.CCN1CCN(CCC(=O)Nc2ccc(S(=O)(=O)N(CC(N)=O)c3ccc(N(CC(N)=O)S(=O)(=O)c4ccc(OC)cc4)c4ccccc34)cc2)CC1 |  | 
2080 nM |  |  |  | COc1ccc(S(=O)(=O)N(CC(N)=O)c2ccc(N(CC(N)=O)S(=O)(=O)c3ccc(NC(=O)CCN4CCC(C)CC4)cc3)c3ccccc23)cc1 | > 100000 nM | 
480 nM |  |  |  | CCN1CCN(CC(=O)Nc2ccc(S(=O)(=O)N(CC(N)=O)c3ccc(N(CC(N)=O)S(=O)(=O)c4ccc(OC)cc4)c4ccccc34)cc2)CC1 | > 100000 nM | 
580 nM |  |  |  | CCN1CCN(CCCC(=O)Nc2ccc(S(=O)(=O)N(CC(N)=O)c3ccc(N(CC(N)=O)S(=O)(=O)c4ccc(OC)cc4)c4ccccc34)cc2)CC1 | > 100000 nM | 
 | 1030 µg/mL | 129 µg/mL | 72.5 µg/mL | CCN1CCN(CCC(=O)Nc2ccc(S(=O)(=O)N(CC(N)=O)c3ccc(N(CC(N)=O)S(=O)(=O)c4ccc(OC)cc4)c4ccccc34)cc2)CC1.O=C(O)CC(O)(CC(=O)O)C(=O)O |  | 
 | 1080 µg/mL | 130 µg/mL | 76.9 µg/mL | CCN1CCN(CCC(=O)Nc2ccc(S(=O)(=O)N(CC(N)=O)c3ccc(N(CC(N)=O)S(=O)(=O)c4ccc(OC)cc4)c4ccccc34)cc2)CC1.O=C(O)CCC(=O)O |  | 
710 nM |  |  |  | COc1ccc(S(=O)(=O)N(CC(N)=O)c2ccc(N(CC(N)=O)S(=O)(=O)c3ccc(NC(=O)CCN4CCN(C(C)C)CC4)cc3)c3ccccc23)cc1 | > 100000 nM | 
